Measured values reported in ChEMBL document CHEMBL1158238, “New prenylflavones from the leaves of Epimedium saggitatum” (J Nat Prod, 1996).

System: Platelet
Experiment: Inhibition of arachidonic acid-induced platelets aggregation by turbidimetry
Format: functional, cell-based

IC50 [µM]	Compound
1.67	C=C(C)C(O)Cc1cc(-c2cc(=O)c3c(O)cc(O)cc3o2)cc(CC=C(C)C)c1O (configuration not stated) [YINYANGHUO B]
7.14	C=C(C)C(O)Cc1cc(-c2cc(=O)c3c(O)cc(O)cc3o2)cc2c1OC(C)(C)C=C2 (configuration not stated) [YINYANGHUO A]
